Assay results as given in PubChem BioAssay (NCI).
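Briefly, cells in 96-well plates were exposed to five compound concentrations for 48 h, and endpoints were estimated by linear interpolation. TGI marks complete inhibition of growth.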

How the values were obtained:
Assay in all cases: inhibition of tumour cell growth, NCI panel, 48 h
[1] = test system: OVCAR-4 ovarian
[2] = test system: SK-OV-3 ovarian
[3] = test system: HT29 colon
[4] = test system: COLO 205 colon
[5] = test system: BT-549 breast
[6] = test system: DU-145 prostate
[7] = test system: UO-31 renal
[8] = test system: OVCAR-5 ovarian
[9] = test system: TK-10 renal
[10] = test system: EKVX NSCLC
[11] = test system: HCC-2998 colon
[12] = test system: KM20L2 colon
[13] = test system: 786-0 renal
[14] = test system: T-47D breast
[15] = test system: OVCAR-3 ovarian
[16] = test system: K-562 leukemia
[17] = test system: MDA-N
[18] = test system: HCT-15 colon
[19] = test system: NCI-H522 lung
[20] = test system: LOX IMVI melanoma
[21] = test system: A549 NSCLC
[22] = test system: MOLT-4 leukemia
[23] = test system: SNB-19 CNS
[24] = test system: NCI-H226 lung
[25] = test system: U251 CNS
[26] = test system: SNB-75 CNS
[27] = test system: M14 melanoma
[28] = test system: OVCAR-8 ovarian
[29] = test system: HCT-116 colon
[30] = test system: NCI-H460 lung
[31] = test system: A498 renal
[32] = test system: MALME-3M melanoma
[33] = test system: RXF 393 renal
[34] = test system: HL-60(TB) leukemia
[35] = test system: RPMI-8226 leukemia
[36] = test system: NCI/ADR-RES ovarian
[37] = test system: MDA-MB-435
[38] = test system: MCF7 breast
[39] = test system: UACC-257 melanoma
[40] = test system: SW-620 colon
[41] = test system: NCI-H23 lung
[42] = test system: HS 578T breast
[43] = test system: MDA-MB-231 breast
[44] = test system: SF-539 CNS
[45] = test system: SK-MEL-28 melanoma
[46] = test system: HOP-92 NSCLC
[47] = test system: CAKI-1 renal
[48] = test system: CCRF-CEM leukemia
[49] = test system: HOP-62 NSCLC
[50] = test system: SN12C renal
[51] = test system: SF-295 CNS
[52] = test system: ACHN renal
[53] = test system: SF-268 CNS
[54] = test system: KM12 colon
[55] = test system: SR leukemia
[56] = test system: IGROV1 ovarian
[57] = test system: UACC-62 melanoma
[58] = test system: SK-MEL-5 melanoma
[59] = test system: PC-3 prostate

Q: `COc1ccc(/C=C/c2cc(OC)c(OC)c(OC)c2)cc1O` was tested. Which TGI [1] did it give?
A: The TGI was 71.5 µM.

Q: What about the TGI [2] of the same molecule?
A: The TGI was 39.9 µM.

Q: What about the TGI [3] of the same molecule?
A: Its TGI is 24 µM.

Q: And the TGI [4]?
A: The TGI was 54.3 µM.

Q: And the TGI [5]?
A: The TGI was 40.7 µM.

Q: And the TGI [6]?
A: Its TGI is 38.9 µM.

Q: And the TGI [7]?
A: Its TGI is 21 µM.

Q: And the TGI [8]?
A: The TGI was 79.5 µM.

Q: What about the TGI [9] of the same molecule?
A: Its TGI is 75.1 µM.

Q: What about the TGI [10] of the same molecule?
A: The TGI was 59.3 µM.

Q: And the TGI [11]?
A: Its TGI is 36.9 µM.

Q: And the TGI [12]?
A: The TGI was 25.1 µM.

Q: And the TGI [13]?
A: The TGI was 15.3 µM.

Q: What about the TGI [14] of the same molecule?
A: The TGI was 45.7 µM.

Q: What does the source list for `Cc1ccc(NCC2CC/C(=C\c3ccc(Cl)cc3)C2=O)cc1` (configuration not stated)?
A: TGI [15]: 29.1 µM; TGI [16]: > 19.8 µM; TGI [1]: > 80.7 µM; TGI [17]: 26.4 µM; TGI [18]: 9.41 µM; TGI [19]: 15.8 µM; TGI [2]: > 100 µM; TGI [20]: 19 µM; TGI [21]: > 100 µM; TGI [22]: > 32.4 µM; TGI [3]: 49.1 µM; TGI [4]: 34.2 µM; TGI [5]: 36.5 µM; TGI [23]: > 55.7 µM; TGI [6]: > 80.6 µM; TGI [24]: > 100 µM; TGI [25]: 34 µM; TGI [26]: > 100 µM; TGI [27]: 28.9 µM; TGI [28]: 36.1 µM; TGI [29]: 26 µM; TGI [30]: > 62.4 µM; TGI [31]: > 73.3 µM; TGI [32]: 38 µM; TGI [7]: 60 µM; TGI [33]: 31 µM; TGI [34]: 13.7 µM; TGI [35]: 6.96 µM; TGI [36]: > 80.1 µM; TGI [37]: 35.9 µM; TGI [38]: 26.7 µM; TGI [8]: > 54.5 µM; TGI [39]: 39.2 µM; TGI [9]: 40.6 µM; TGI [40]: 16.5 µM; TGI [41]: 45.7 µM; TGI [42]: > 100 µM; TGI [43]: 28.4 µM; TGI [44]: > 60.7 µM; TGI [10]: > 100 µM; TGI [45]: 36.7 µM; TGI [46]: 30.6 µM; TGI [47]: 21.7 µM; TGI [48]: 19.3 µM; TGI [49]: > 82.6 µM; TGI [50]: 33.3 µM; TGI [51]: > 100 µM; TGI [11]: > 69.8 µM; TGI [52]: > 71.5 µM; TGI [53]: 56.4 µM; TGI [54]: 19 µM; TGI [55]: > 24 µM; TGI [56]: 38 µM; TGI [13]: 11.3 µM; TGI [57]: 58.6 µM; TGI [58]: 20.4 µM; TGI [14]: 46.5 µM; TGI [59]: 37.5 µM
